Measurements published in PMC8968063, “Key features of inhibitor binding to the human mitochondrial pyruvate carrier hetero-dimer” (Molecular Metabolism, 2022).
Several values for one entry are separate records, joined by “and”; a condition that tells them apart may be missing. Identical values can stand only once. Like-named read-outs stand apart in the source and are kept apart here.

Key:
human MPC1L/MPC2 complex [1] = biological target: T1, human MPC1L/MPC2 complex (Homo sapiens, UniProt O95563+P0DKB6); assay: CPM thermostability shift assay, purified MPC1L/MPC2; format: binding; settings: for ΔTm at 100 µM: read-out: ∆Tm, CPM assay (thermal shift compared to no-ligand control); for Tm, CPM assay: unliganded 51.3 ± 0.2, mean ± s.d., 3 biological repeats
T1 construct: eight-histidine tag (C, cleaved yes); TEV protease cleavage site (part stays on MPC2 after digestion) (C, cleaved yes); made in house; host or cells: Saccharomyces cerevisiae SHY15 (mpc triple deletion strain), purified from mitochondria
T1 sequence (P0DKB6 2-136): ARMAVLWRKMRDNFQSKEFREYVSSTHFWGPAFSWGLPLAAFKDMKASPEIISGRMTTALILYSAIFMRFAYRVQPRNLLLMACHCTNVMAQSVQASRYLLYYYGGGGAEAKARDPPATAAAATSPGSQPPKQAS
T1 sequence (O95563 2-127): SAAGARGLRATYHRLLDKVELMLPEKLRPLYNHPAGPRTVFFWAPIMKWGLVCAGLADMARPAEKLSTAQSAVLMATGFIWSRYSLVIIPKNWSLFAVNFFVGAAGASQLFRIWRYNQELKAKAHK
Protocol: The assessment of ligand binding was performed via shifts in protein thermostability upon binding using thermal denaturation on a rotary quantitative PCR (qPCR) instrument (Qiagen Rotor-Gene Q 2plex HRM, Venlo, Netherlands), as previously described. In this method, cysteine residues, buried within the protein structure, become solvent-exposed during denaturation in a temperature ramp and then react with 7-diethylamino-3-(4-maleimidophenyl)-4-methylcoumarin (CPM) to form fluorescent-adducts. Briefly, a CPM working solution was prepared by diluting the CPM stock (5 mg/mL in dimethyl sulfoxide) 50-fold into assay buffer (20 mM Tris–HCl, pH 7.4, 150 mM NaCl, 0.1% (w/v) LMNG, 0.1 mg/mL TOCL) and incubated for 10 min at room temperature. In each analysis, performed in duplicates or triplicates, 3 μg of purified MPC was diluted into 45 μL of assay buffer containing the desired concentration of the inhibitor then incubated for 10 min on ice. Next, 5 μL of the CPM working solution were added. Samples were incubated on ice for an additional 10 min then subjected to a temperature ramp of 5.6 °C/min. The fluorescence increase was monitored with the HRM channel of the instrument (excitation at 440–480 nm, emission at 505–515 nm). Unfolding profiles were analysed with the Rotor-Gene Q software 2.3, and the peaks of their derivatives were used to determine the apparent melting temperature.

[2] = biological target: T2, human MPC1L/MPC2 hetero-dimer (Homo sapiens, UniProt O95563+P0DKB6); assay: Inhibition of [14C]-pyruvate homo-exchange in MPC1L/MPC2 proteoliposomes; format: biochemical; settings: MPC1L/MPC2 proteoliposomes, 50 μM [14C]-pyruvate homo-exchange, mean ± s.d.; read-out: IC50 of pyruvate transport inhibition
T2 construct: eight-histidine tag (C, cleaved yes); TEV protease cleavage site (part stays on MPC2 after digestion) (C, cleaved yes); made in house; host or cells: Saccharomyces cerevisiae SHY15 (mpc triple deletion strain), purified from mitochondria
T2 sequence (P0DKB6 2-136): T1 sequence (P0DKB6 2-136)
T2 sequence (O95563 2-127): T1 sequence (O95563 2-127)
Protocol: Egg L-α-phosphatidylcholine 99% (w/v) (Avanti Polar Lipids, AL, USA) and TOCL were mixed in a 20:1 (w/w) ratio, dried under a stream of nitrogen and washed once with methanol before being dried again. Lipids were hydrated in 20 mM Tris–HCl, pH 8.0, 50 mM NaCl to a concentration of 12 mg/mL. Unlabeled pyruvate was added as a freshly made concentrated stock at a final concentration of 5 mM for internalisation. Lipids were solubilised with 1.2% (v/v) pentaethylene glycol monodecyl ether (Sigma) and freshly purified protein was added at a lipid-to-protein ratio of 250:1 (w/w). Samples were incubated on ice for 5 min, then liposomes were formed by the step-wise removal of pentaethylene glycol monodecyl ether by five additions at 20 min intervals of 60 mg Bio-Beads SM-2 (Bio-Rad, Watford, UK) with gentle mixing at 4 °C. A final addition of 480 mg Bio-Beads was incubated with the samples overnight. Proteoliposomes were first separated from the Bio-Beads by passage through empty spin columns (Bio-Rad, Watford, UK) and subsequently pelleted at 120,000×g for 60 min. The proteoliposomes were resuspended with a thin needle in 150 μL of their supernatant after the rest of the supernatant was removed.
The time course of pyruvate homo-exchange was measured at room temperature. The transport was initiated by diluting proteoliposomes 200-fold into external buffer, 20 mM MES, pH 6.4, 50 mM NaCl, containing 50 μM [^14C]-pyruvate (500,000 dpm, Perkin Elmer, MA, USA). The reaction (0–30 s) was terminated by rapid dilution into 8 volumes of ice-cold internal buffer (20 mM Tris–HCl, pH 8.0, 50 mM NaCl), followed by rapid filtration through cellulose nitrate 0.45 μm filters (Millipore, Gillingham, UK) and washing with an additional 8 volumes of buffer. The filters were dissolved in Ultima Gold scintillation liquid (Perkin Elmer, MA, USA) and the radioactivity was counted with a Perkin Elmer Tri-Carb 2800 RT liquid scintillation counter. […] The data analysis was performed with non-linear regression fittings using GraphPad Prism 7.0d ([Inhibitor] vs response, variable slope). The specific uptake rates were calculated based on the amount of protein used in reconstitutions, as estimated from bicinchoninic acid assay. The biological repeats represent independent proteoliposome preparations using protein from independent purifications.

[3] = biological target: T3, recombinant human MPC1L/MPC2 (Homo sapiens, UniProt O95563+P0DKB6); assay: Electrospray mass spectrometry of MPC1L/MPC2 after reaction with inhibitors or sulfhydryl modifiers; settings: for Covalent modification of MPC protomers (molecular mass change): folded MPC1L/MPC2 incubated with compound, ESI-MS; for Modifications, MPC1L (2–136) / Modifications, MPC1L (5–136) / Modifications, MPC2 (2–137): number of covalent adducts from mass increase
T3 construct: MPC1L (2–136); MPC2 (2–137); eight-histidine tag (C, cleaved yes); TEV protease cleavage site (part stays on MPC2 after digestion) (C, cleaved yes); made in house; host or cells: Saccharomyces cerevisiae SHY15 (mpc triple deletion strain), purified from mitochondria
T3 sequence (P0DKB6 2-136 limits assumed): T1 sequence (P0DKB6 2-136)
T3 sequence (O95563 2-127 limits assumed): T1 sequence (O95563 2-127)
Protocol: Different MPC inhibitors (Table1) or sulfhydryl reagents were first incubated with MPC1L/MPC2 in a folded state, then the protein molecular masses were measured by electrospray mass spectrometry. The MPC subunits (10 μg) were resolved by reverse-phase HPLC on a PLRP-S column (1.0 mm i.d. X 75 mm; VARIAN) using a gradient of 2-propanol in a solvent system compatible with the recovery of membrane proteins (Carroll et al., 2009). The eluate (50 μL/min) was introduced into a QTRAP4000 (SCIEX) mass spectrometer operating in positive ion single MS mode. The instrument was scanned from 700 m/z to 2300 m/z after calibration with ions from a mixture of 1.0 μM of myoglobin and 1.5 μM trypsinogen. Molecular masses were obtained by reconstruction of the spectra of multiply charged ions using PeakView (SCIEX).

human MPC1L/MPC2 complex [4] = biological target: T1, human MPC1L/MPC2 complex; assay: nano-DSF thermostability shift assay, purified MPC1L/MPC2; format: binding; settings: inhibitor 100 μM; for Tm, nano-DSF: unliganded 51.9 ± 0.1, mean ± s.d., 2 biological repeats
Protocol: Ligand binding was also assessed using dye-free nano differential scanning fluorimetry (nano-DSF) to monitor fluorescence changes due to altered environments of tryptophan and tyrosine residues during unfolding. Protein samples in buffer containing 20 mM Tris–HCl pH 7.4, 150 mM NaCl, 0.1% (w/v) LMNG, 0.1 mg/mL TOCL, in the presence or absence of the indicated concentrations of small molecule inhibitors, were loaded into capillary tubes, and a temperature ramp of 5 °C/min was applied. The intrinsic fluorescence was measured using the NanoTemper Prometheus NT.48 (NanoTemper, München, Germany).

[5] = MPC1L/MPC2 after reaction with compound

Row | SMILES | ΔTm at 100 µM (human MPC1L/MPC2 complex [1]; inhibitor 100 μM) | Tm, CPM assay (human MPC1L/MPC2 complex [1]; inhibitor 100 μM) | also measured
1 | COc1ccc(/C=C(/C#N)C(=O)O)cc1 [Compound 1] | 9.1 ± 1.2 °C | 60.4 ± 1.0 °C | 
2 | N#C/C(=C/c1ccc(-c2ccc(Br)cc2)o1)C(=O)O [Compound 3] | 8.4 ± 1.3 °C | 59.7 ± 1.1 °C | 
3 | N#C/C(=C/c1ccc(-c2ccc(F)cc2)o1)C(=O)O [Compound 4] | 9.1 ± 1.5 °C | 60.4 ± 1.3 °C | 
4 | N#C/C(=C/c1ccc(-c2ccc(Cl)cc2)o1)C(=O)O [Compound 5] | 9 ± 1.6 °C | 60.3 ± 1.4 °C | 
5 | N#C/C(=C/c1ccc(-c2cccc(C(F)(F)F)c2)o1)C(=O)O [Compound 6] | 8.5 ± 1.6 °C | 59.8 ± 1.4 °C | 
6 | N#C/C(=C/c1ccc(-c2ccccc2[N+](=O)[O-])o1)C(=O)O [Compound 7] | 16.5 ± 1.4 °C | 67.8 ± 1.2 °C | IC50 [2]: 5.4 ± 1.1 nM; Mass difference (observed vs calculated), MPC1L (2–136) [3, 5]: 0.5 Da; Mass difference (observed vs calculated), MPC1L (5–136) [3, 5]: 0.9 Da; Mass difference (observed vs calculated), MPC2 (2–137) [3, 5]: 1.6 Da; Covalent modification of MPC protomers (molecular mass change) [3]: no molecular mass differences
7 | N#C/C(=C/c1ccc(-c2ccccc2Cl)o1)C(=O)O [Compound 8] | 11 ± 1.9 °C | 62.3 ± 1.7 °C | 
8 | N#C/C(=C/c1ccc(-c2cccc([N+](=O)[O-])c2)o1)C(=O)O [Compound 9] | 11.7 ± 2 °C | 63.0 ± 1.8 °C | 
9 | O=C(O)C(=Cc1ccc(-c2ccccc2[N+](=O)[O-])o1)C(=O)O [Compound 10] | -0.1 ± 1.1 °C | 51.2 ± 0.9 °C | ∆Tm, CPM assay (thermal shift compared to no-ligand control) (human MPC1L/MPC2 complex [1]; inhibitor 100 μM): No thermal shift
10 | O=C1NC(=O)C(=Cc2ccc(-c3ccccc3[N+](=O)[O-])o2)C(=O)N1 [Compound 11] |  | 57.7 ± 2.1 °C | ΔTm at 100 µM (human MPC1L/MPC2 complex [1]): 6.4 ± 2.3 °C
11 | CN1C(=O)NC(=O)/C(=C/c2ccc(-c3ccccc3[N+](=O)[O-])o2)C1=O [Compound 12] | 9.1 ± 0.9 °C | 60.4 ± 0.7 °C | 
12 | C=CCN1C(=O)NC(=O)/C(=C/c2ccc(-c3ccccc3[N+](=O)[O-])o2)C1=O [Compound 13] | 7.4 ± 1.9 °C | 58.7 ± 1.7 °C | 
13 | CCN(CC)C(=O)/C(C#N)=C/c1cc(O)c(O)c([N+](=O)[O-])c1 [Entacapone, (2E)-2-cyano-3-(3,4-dihydroxy-5-nitrophenyl)-N,N-diethylprop-2-enamide] |  |  | IC50 [2]: 630 ± 53 nM; ∆Tm, nano-DSF (human MPC1L/MPC2 complex [4]): 6.3 ± 1.1 °C; Tm, nano-DSF (human MPC1L/MPC2 complex [4]): 58.2 ± 1.0 °C
14 | CS(=O)(=O)SCCN [MTSEA] |  |  | Mass difference (observed vs calculated), MPC1L (2–136) [3, 5]: +149.3 Da; Mass difference (observed vs calculated), MPC1L (5–136) [3, 5]: +149.2 Da; Covalent modification of MPC protomers (molecular mass change) [3]: modified covalently; Modifications, MPC1L (2–136) [3]: 2 x MTSEA; Modifications, MPC1L (5–136) [3]: 2 x MTSEA; Modifications, MPC2 (2–137) [3]: 1 x MTSEA
15 | CCc1ccc(C(=O)COc2ccc(CC3SC(=O)NC3=O)cc2)nc1 (stereo not shown) [Mitoglitazone, mitoglitazone] | 5.4 ± 0.8 °C | 56.7 ± 0.6 °C | ∆Tm, nano-DSF (human MPC1L/MPC2 complex [4]): 1.9 ± 0.5 °C; Tm, nano-DSF (human MPC1L/MPC2 complex [4]): 53.8 ± 0.4 °C
16 | CCN1C(=O)C=CC1=O [NEM] |  |  | Covalent modification of MPC protomers (molecular mass change) [3]: modified covalently; Modifications, MPC1L (2–136) [3]: 2 x NEM and 1 x NEM; Modifications, MPC1L (5–136) [3]: unmodified and 1 x NEM and 2 x NEM and 3 x NEM; Modifications, MPC2 (2–137) [3]: 2 x NEM and 1 x NEM and 3 x NEM
17 | O=C1CN(/N=C/c2ccc([N+](=O)[O-])o2)C(=O)N1 [Nitrofurantoin, (E)-1-[(5-nitro-2-furyl)methylideneamino]imidazolidine-2,4-dione] |  |  | IC50 [2]: 3300 ± 2600 nM
18 | CCc1ccc(CCOc2ccc(CC3SC(=O)NC3=O)cc2)nc1 (stereo not shown) [Pioglitazone, pioglitazone] | 5.1 ± 0.9 °C | 56.4 ± 0.7 °C | ∆Tm, nano-DSF (human MPC1L/MPC2 complex [4]): 1.1 ± 0.3 °C; Tm, nano-DSF (human MPC1L/MPC2 complex [4]): 53.0 ± 0.2 °C
19 | CN(CCOc1ccc(CC2SC(=O)NC2=O)cc1)c1ccccn1 (stereo not shown) [Rosiglitazone, rosiglitazone] | 5.3 ± 0.5 °C | 56.6 ± 0.3 °C | 
20 | COc1cc(C2Oc3cc([C@H]4Oc5cc(O)cc(O)c5C(=O)[C@@H]4O)ccc3OC2CO)ccc1O (stereo partly shown) [Silibinin] | 0.1 ± 0.6 °C | 51.4 ± 0.4 °C | Thermal shift in the CPM assay (human MPC1L/MPC2 complex [1]; compound 1 mM): positive thermal shift; ∆Tm, CPM assay (thermal shift compared to no-ligand control) (human MPC1L/MPC2 complex [1]; inhibitor 100 μM): No thermal shifts; ∆Tm, nano-DSF (human MPC1L/MPC2 complex [4]): 0.2 ± 0.3 °C; ∆Tm, nano-DSF (human MPC1L/MPC2 complex [4]; listed as silibinin): No thermal shifts; Tm, nano-DSF (human MPC1L/MPC2 complex [4]): 52.1 ± 0.2 °C
